Structures can show the parent of a compound that is named as a salt.
Key:
Dopamine Receptor D4 [1] = target: T1, Dopamine Receptor D4 (Homo sapiens, UniProt P21917); details: compounds 1-7, D2-like data; ref Previous publications from our lab; cited from earlier work
T1 sequence (P21917 1-419): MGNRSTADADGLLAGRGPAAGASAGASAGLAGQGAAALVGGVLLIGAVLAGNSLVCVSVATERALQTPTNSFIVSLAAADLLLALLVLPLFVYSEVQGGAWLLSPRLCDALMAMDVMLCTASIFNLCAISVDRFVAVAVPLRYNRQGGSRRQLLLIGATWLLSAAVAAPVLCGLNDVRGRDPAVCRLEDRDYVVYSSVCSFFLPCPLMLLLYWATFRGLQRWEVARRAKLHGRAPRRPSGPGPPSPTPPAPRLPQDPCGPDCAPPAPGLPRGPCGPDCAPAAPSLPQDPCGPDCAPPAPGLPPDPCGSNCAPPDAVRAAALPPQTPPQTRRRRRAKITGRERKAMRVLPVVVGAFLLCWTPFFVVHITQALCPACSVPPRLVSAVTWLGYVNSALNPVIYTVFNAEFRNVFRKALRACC

Dopamine Receptor D4 [2] = target: T1, Dopamine Receptor D4; experiment: NIMH-PDSP binding affinity at dopamine receptor subtype D4; details: for D2/D4: ratio of Ki D2 to Ki D4
Dopamine Receptor D5 = Dopamine Receptor D5 (Homo sapiens, UniProt P21918); experiment: NIMH-PDSP binding affinity at dopamine receptor subtype D5; details: for primary assay inhibition at D5: primary assay threshold
Dopamine Receptor D1 = Dopamine Receptor D1 (Homo sapiens, UniProt P21728); experiment: NIMH-PDSP binding affinity at dopamine receptor subtype D1; details: for primary assay inhibition at D1: primary assay threshold
Dopamine Receptor D2 = Dopamine Receptor D2 (Homo sapiens, UniProt P14416); experiment: NIMH-PDSP binding affinity at dopamine receptor subtype D2; details: for primary assay inhibition at D2: primary assay threshold
Dopamine Receptor D3 = Dopamine Receptor D3 (Homo sapiens, UniProt P35462); experiment: NIMH-PDSP binding affinity at dopamine receptor subtype D3
Dopamine Receptor D3, sequence (P35462 whole entry): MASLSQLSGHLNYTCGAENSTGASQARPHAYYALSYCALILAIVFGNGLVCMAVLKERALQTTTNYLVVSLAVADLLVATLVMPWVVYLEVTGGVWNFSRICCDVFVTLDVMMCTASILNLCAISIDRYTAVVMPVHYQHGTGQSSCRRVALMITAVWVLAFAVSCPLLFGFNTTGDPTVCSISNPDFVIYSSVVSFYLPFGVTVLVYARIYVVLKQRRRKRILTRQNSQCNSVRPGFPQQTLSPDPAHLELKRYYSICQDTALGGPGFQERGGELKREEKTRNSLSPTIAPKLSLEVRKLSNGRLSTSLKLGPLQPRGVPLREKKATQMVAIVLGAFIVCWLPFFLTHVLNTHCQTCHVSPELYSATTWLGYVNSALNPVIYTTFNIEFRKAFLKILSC

Dopamine Receptor D2, sequence (P14416 whole entry): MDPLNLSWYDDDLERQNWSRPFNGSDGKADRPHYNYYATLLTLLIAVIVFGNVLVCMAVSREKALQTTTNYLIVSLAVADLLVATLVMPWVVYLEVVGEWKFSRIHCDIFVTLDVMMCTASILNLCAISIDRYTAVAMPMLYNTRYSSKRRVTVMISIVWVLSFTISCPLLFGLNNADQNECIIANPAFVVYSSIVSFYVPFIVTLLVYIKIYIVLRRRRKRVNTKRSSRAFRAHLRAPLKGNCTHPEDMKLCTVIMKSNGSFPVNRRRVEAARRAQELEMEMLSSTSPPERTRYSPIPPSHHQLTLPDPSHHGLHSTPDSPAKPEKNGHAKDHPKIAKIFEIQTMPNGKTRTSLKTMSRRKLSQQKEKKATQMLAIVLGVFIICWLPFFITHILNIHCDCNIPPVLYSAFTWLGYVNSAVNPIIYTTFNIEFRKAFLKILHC
Dopamine Receptor D5, sequence (P21918 whole entry): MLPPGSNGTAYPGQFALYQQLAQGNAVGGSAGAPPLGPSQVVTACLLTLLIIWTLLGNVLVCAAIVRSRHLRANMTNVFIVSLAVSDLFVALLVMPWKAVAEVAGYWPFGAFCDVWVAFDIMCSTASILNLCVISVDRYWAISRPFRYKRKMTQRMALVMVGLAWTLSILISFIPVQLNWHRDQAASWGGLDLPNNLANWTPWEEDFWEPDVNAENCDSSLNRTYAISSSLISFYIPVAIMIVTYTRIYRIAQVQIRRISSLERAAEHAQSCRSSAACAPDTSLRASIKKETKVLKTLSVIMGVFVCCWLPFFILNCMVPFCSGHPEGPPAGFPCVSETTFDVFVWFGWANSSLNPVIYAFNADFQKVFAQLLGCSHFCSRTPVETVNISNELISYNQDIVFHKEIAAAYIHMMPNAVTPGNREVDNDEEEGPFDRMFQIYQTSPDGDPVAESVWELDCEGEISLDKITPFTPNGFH
Dopamine Receptor D1, sequence (P21728 whole entry): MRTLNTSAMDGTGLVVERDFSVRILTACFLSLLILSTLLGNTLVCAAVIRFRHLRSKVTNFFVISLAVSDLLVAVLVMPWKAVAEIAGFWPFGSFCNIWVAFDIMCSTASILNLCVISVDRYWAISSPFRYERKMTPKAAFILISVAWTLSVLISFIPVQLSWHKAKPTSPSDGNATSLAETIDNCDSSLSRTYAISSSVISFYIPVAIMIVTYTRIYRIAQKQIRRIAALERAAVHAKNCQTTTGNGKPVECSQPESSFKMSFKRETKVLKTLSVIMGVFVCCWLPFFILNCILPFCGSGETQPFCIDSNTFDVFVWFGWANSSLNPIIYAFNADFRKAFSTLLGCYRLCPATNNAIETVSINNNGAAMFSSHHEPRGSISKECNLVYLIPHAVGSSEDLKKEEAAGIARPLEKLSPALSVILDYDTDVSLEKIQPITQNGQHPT

SMILES	D2/D4 (Dopamine Receptor D4 [2])	primary assay inhibition at D5 (Dopamine Receptor D5)	primary assay inhibition at D1 (Dopamine Receptor D1)	also measured
Clc1ccc(N2CCN(CCCOc3ccccc3)CC2)cc1 [Compound 6]	–	–	–	pKi ±SEM at the Dopamine Receptor Subtype D4 (Dopamine Receptor D4 [1]): 8.26±0.03
O=C(CCCN1CCN(c2ccc(Cl)cc2)CC1)c1ccc(F)cc1 [Compound 1]	14.5	–	–	D3/D4 (Dopamine Receptor D4 [2]; ratio of Ki D3 to Ki D4): 23.1
O=C1c2ccc(F)cc2CC1CCN1CCN(c2ccc(Cl)cc2)CC1 (centres unmarked) [Compound 8, 2-(2-(4-(4-Chlorophenyl)piperazin-1-yl)ethyl)-5-fluoro-indan-1-one hydrochloride]	–	MT (Missed primary assay threshold of 50% inhibition)	–	–
Clc1ccc(N2CC3CC2CN3CCCc2cc3ccccc3o2)cc1 (centres unmarked) [Compound 25, 2-(3-(Benzofuran-2-yl)propyl)-5-(4-chlorophenyl)-2,5-diazabicyclo[2.2.1]heptane]	>4.2-	MT (Missed primary assay threshold of 50% inhibition)	MT (Missed primary assay threshold of 50% inhibition)	primary assay inhibition at D2 (Dopamine Receptor D2): MT (Missed primary assay threshold of 50% inhibition)
Clc1ccc(N2CCN(CCCCc3nc4ccccc4o3)CC2)cc1 [Compound 20, 2-(4-(4-(4-Chlorophenyl)piperazin-1-yl)butyl)benzo[d]oxazole]	>327	MT (Missed primary assay threshold of 50% inhibition)	MT (Missed primary assay threshold of 50% inhibition)	primary assay inhibition at D2 (Dopamine Receptor D2): MT (Missed primary assay threshold of 50% inhibition)
Clc1ccc(N2CCN(CCCc3cc4ccccc4o3)CC2)cc1 [Compound 24, 1-(3-(Benzofuran-2-yl)propyl)-4-(4-chlorophenyl)piperazine]	–	MT (Missed primary assay threshold of 50% inhibition)	–	–
c1cnc(N2CCN(CCCCc3nc4ccccc4s3)CC2)nc1 [Compound 27]	–	MT (Missed primary assay threshold of 50% inhibition)	MT (Missed primary assay threshold of 50% inhibition)	–
O=C1c2ccccc2CC1CCN1CCN(c2ccc(Cl)cc2)CC1 (centres unmarked) [Compound 9, 2-{2-[4-(4-Chloro-phenyl)-piperazin-1-yl]-ethyl}-indan-1-one tosylate]	>277	MT (Missed primary assay threshold of 50% inhibition)	–	–
Fc1ccc2c(c1)CC(CCN1CCN(c3ccc(Cl)cc3)CC1)C2 (centres unmarked) [Compound 10, 1-(4-Chlorophenyl)-4-(2-(5-fluoro-2,3-dihydro-1H-inden-2-yl)ethyl)piperazine dihydrochloride]	–	MT (Missed primary assay threshold of 50% inhibition)	–	–
[O-][S+](CCCN1CCN(c2ccc(Cl)cc2)CC1)c1ccc(F)cc1 (centres unmarked) [Compound 2]	–	MT (Missed primary assay threshold of 50% inhibition)	MT (Missed primary assay threshold of 50% inhibition)	pKi ±SEM at the Dopamine Receptor Subtype D4 (Dopamine Receptor D4 [1]): 7.89±0.05
Cc1ccc(N2CCN(CCCOc3ccc(F)cc3)CC2)nc1 [Compound 15a, 1-(3-(4-Fluorophenoxy)propyl)-4-(5-methylpyridin-2-yl)piperazine]	–	–	–	Ki (Dopamine Receptor D4 [2]; pKi ±SEM at the Dopamine Receptor Subtype D4): 1.1 nM
Fc1ccc(OCCCN2CCN(c3ncccn3)CC2)cc1 [Compound 16a]	–	MT (Missed primary assay threshold of 50% inhibition)	–	–
Cc1ccc(N2CCN(CCCSc3ccc(F)cc3)CC2)nc1 [Compound 15b, 1-(3-((4-Fluorophenyl)thio)propyl)-4-(5-methylpyridin-2-yl)piperazine]	–	–	–	pKi ±SEM at the Dopamine Receptor Subtype D2 (Dopamine Receptor D2): 6±0.1; pKi ±SEM at the Dopamine Receptor Subtype D3 (Dopamine Receptor D3): 6.8±0.1; pKi ±SEM at the Dopamine Receptor Subtype D5 (Dopamine Receptor D5): 5.7±0.1
Clc1ccc(N2CCN(CCc3cc4ccccc4o3)CC2)cc1 [Compound 23, 1-(2-(Benzofuran-2-yl)ethyl)-4-(4-chlorophenyl)piperazine]	–	MT (Missed primary assay threshold of 50% inhibition)	MT (Missed primary assay threshold of 50% inhibition)	primary assay inhibition at D2 (Dopamine Receptor D2): MT (Missed primary assay threshold of 50% inhibition); primary assay inhibition at D3 (Dopamine Receptor D3; primary assay threshold): MT (Missed primary assay threshold of 50% inhibition)
Clc1ccc(N2CCN(CCc3nc4ccccc4o3)CC2)cc1 [Compound 22, 2-(2-(4-(4-Chlorophenyl)piperazin-1-yl)ethyl)benzo[d]oxazole]	>7.1	MT (Missed primary assay threshold of 50% inhibition)	MT (Missed primary assay threshold of 50% inhibition)	primary assay inhibition at D2 (Dopamine Receptor D2): MT (Missed primary assay threshold of 50% inhibition)
c1cnc(N2CCN(CCCc3nc4ccccc4s3)CC2)nc1 [Compound 28, 2-(3-(4-(Pyrimidin-2-yl)piperazin-1-yl)propyl)benzo[d]thiazole trihydrobromide]	–	MT (Missed primary assay threshold of 50% inhibition)	MT (Missed primary assay threshold of 50% inhibition)	inhibition of the appropriate radioligand at D1 (Dopamine Receptor D1; other DA subtypes): less than 50%; inhibition of the appropriate radioligand at D5 (Dopamine Receptor D5; other DA subtypes): less than 50%

Reference: paper PMC4096627 (Bioorganic & medicinal chemistry, 2014)
